From US11191835B2, “Chlorin-vitamin conjugates” (priority 2018, dated 2021)
Where two headings read alike, the source gives them in different places.

What was measured:
[1] = system: triple-positive breast cancer cell ZR-75-1; experiment: Fluorescence microscopy (Hoechst 33258), ZR-75-1 cells; format: cell-based, Human; details: 24 h compound treatment followed by 2 min light irradiation (1.92 J cm^−2)
Method: Fluorescence microscopy was used to visualize and examine the cell morphological features before and after photosensitization. Specific cellular characteristics can identify the mechanism of cell death which can be exploited to understand therapeutic outcome. […] After aspirating the old growth media, 1 mL of the compound or photosensitizer (with varying concentrations) in fresh pre-warmed media at 37° C. was added to each well. […] Images were recorded using fluorescence microscopy (DAPI for Hoechst 350-390 nm excitation and 460-490 nm emission filters) using an upright fluorescence microscope with Retiga imaging 2000R (Nikon Optiphot-2, 20× and 40×) and an image processing Nikon NIS-Elements V4.0 Qimaging software.

[2] = system: triple-positive breast cancer cell ZR-75-1; format: cell-based; set-up: % Cell Survival: concentration or dose not given beside the values; details: for % Cell Survival: ZR-75-1, 24 h compound treatment followed by 2 min light irradiation (1.92 J cm^−2); for dark toxicity ranking / dark toxicity: unirradiated TPBC cells
Method: (§1) Human mammary epithelial carcinoma cell lines purchased from the American Type Culture Collection ZR-75-1 (ATCC CRL-1500) and BT-549 (ATCC HTB-122) were cultured according to ATCC protocol. Briefly, ZR-75-1 cells were grown in RPMI 1640 medium (ATCC), while BT-549 were grown in RPMI 1640 containing 0.023 IU/mL insulin. Both were supplemented with 10% fetal bovine serum (FBS). Cells were grown to 80-90% confluence in 75-cm^2 culture flasks (Corning) for 4-5 days in a humidified incubator (Fisher Scientific Isotemp) with 5% CO2 at 37° C. During the incubation period, growth media was changed once with fresh pre-warmed media (pH 7.2). To harvest the cells, old growth media was aspirated out and 3 mL 0.25% trypsin solution (Thermo Sci Hyclone) were added. The cells were incubated for 5 min and the cell pellet after centrifugation was resuspended in 3 mL media, broken up gently, then 1 ml of suspended cells was transferred into a new T75 cell culture flask containing pre-warmed media (20 mL) for further culturing.
(§2) Cells were grown to confluence in a 96-well plate (5×10^4 cells/well) and treated for 24 h with compounds or photosensitizers of varying concentrations ranging from 5 nM to 50 μM) in growth media from a stock solution of 10 mM in DMSO (dimethyl sulfoxide, Fisher). After 24 h treatment, old growth media containing the PS or compounds were aspirated out and replaced with fresh media. Plates were then positioned below a non-coherent LumaCare LC-122 650 nm light source for 1, 2, and 5 min at an energy fluence rate of 16 mW/cm^2 (measured using a Newport optical power meter Model 840). Unirradiated cells served as control samples. The following day, cells were washed with pre-warmed PBS, and MTT (3-[4,5-dimethyl-thiazol-2-yl]-2.5-diphenyltetrazolium bromide, Sigma, 0.3 mg/mL) in PBS was added to each well. Samples were allowed to incubate for additional 2 h, after which dark blue crystals formed. DMSO was added to each well and plates were shaken at room temperature for 1 h to dissolve the purplish-blue formazan crystals. Absorbance values at 490 nm were measured on a microplate reader (BioRad 550). Cell survival was calculated based on the absorbance of the untreated cells alone (as control) and were directly proportional to the number of viable cells in culture. Results were reported as average of triplicate measurements.

[3] = system: triple-negative breast cancer cell BT549; format: cell-based; set-up: % Cell Survival: concentration or dose not given beside the values; details: for % Cell Survival: BT549, 24 h compound treatment followed by 2 min light irradiation (1.92 J cm^−2); for dark toxicity / dark toxicity ranking: absence of light
Method: as §1, §2

[4] = system: Mouse colon carcinoma cell line CT26.WT; experiment: Cell survival (MTT) assay, CT26 colon carcinoma cells; format: cell-based
Method: Mouse colon carcinoma cell line CT26. WT was purchased from the American Type Culture Collection (ATCC CRL-2638). […] During the incubation period, growth media was changed once with fresh pre-warmed medium (pH 7.2). To harvest the cells, old growth media was aspirated and 5 mL 0.25% trypsin solution (Thermo Sci Hyclone, Waltham, Mass., USA) were added. The cells were incubated for 10 min and gently scraped to detach cells from the flask walls. Clumped cells were broken up gently and 1 mL of the trypsinized cell homogenate suspension was transferred into a new T75 cell culture flask containing pre-warmed media (20 mL) for further culturing. […] After 24 h treatment, old growth media containing the PS or compounds were aspirated out and replaced with fresh media. Plates were then positioned below a non-coherent LumaCare LC-122 650 nm light source for 1, 2, and 5 min at an energy fluence rate of 16 mW/cm^2 (measured using a Newport optical power meter Model 840). Unirradiated cells served as control samples. […] Samples were allowed to incubate for additional 2 h, after which dark blue crystals formed. DMSO was added to each well and plates were shaken at room temperature for 1 h to dissolve the purplish-blue formazan crystals. Absorbance values at 490 nm were measured on a microplate reader (BioRad 550). Cell survival was calculated based on the absorbance of the untreated cells alone (as control) and were directly proportional to the number of viable cells in culture. Results were reported as average of triplicate measurements.

Compound	Morphological Features [1]	% Cell Survival [2] [%]	dark toxicity ranking [2]	% Cell Survival [3] [%]	dark toxicity ([3]; TNBC cells, 24-hr treatment)	dark toxicity ranking ([3]; TNBC cells)	dark toxicity [2]	also measured
13^1-Hexamethylenediaminyl-Biotinylchlorin e6 dimethyl ester indium (III) chloride [Example 5]	Cell debris apparent	12.9	Example 3>Example 5>MePheo>Example 6	56	exhibited dark toxicity	Example 3 (most phototoxic in the dark)>Example 1>Example 6>Example 5	–	decrease in cell proliferation of colon cancer cells ([4]; irradiation for 2 min, compared to MePheo, Example 1 or Example 3): 30%
13^1-Hexamethylenediaminyl-bexarotenylchlorin e6 dimethyl ester [Example 2]	–	4.6	–	7.7	–	–	–	–
C=Cc1c(C)c2cc3nc(c(CC(=O)OC)c4[nH]c(cc5nc(cc1[nH]2)C(C)=C5CC)c(C)c4C(=O)NCCCCCCNC(=O)CCCC[C@@H]1SC[C@@H]2NC(=O)N[C@@H]21)[C@@H](CCC(=O)OC)[C@@H]3C [Example 1, 13^1-Hexamethylenediaminyl-biotinylchlorin e6 dimethyl ester]	–	4.2	–	8.1	exhibited in vitro dark cytotoxicity at 5 μM concentration	Example 3 (most phototoxic in the dark)>Example 1>Example 6>Example 5	no toxicity	dark toxicity ([2]; listed as Example l): no dark toxicity; phototoxicity at nanomolar concentrations ([3]; TNBC cells, 100 nM to 200 nM, light activation): showed a light-activation dose response; cell inhibition ([3]; TNBC cells, 100 nM, 5 min light dose (4.8 J cm^−2)): 60%; reduction in cell proliferation ([3]; TNBC cells, 200 nM, lowest light dose used): ~50%; cell survival in the absence of light ([3]; TNBC cells, 5 μM, 24-hr treatment, no light): 86%; increase of cell inhibition upon irradiation compared to methyl pheophorbide (MePheo) ([4]; colon cancer cells, upon irradiation): approximately 19%
C=Cc1c(C)c2cc3nc(c4c5[nH]c(cc6nc(cc1[nH]2)C(C)=C6CC)c(C)c5C(=O)[C@@H]4C(=O)OC)[C@@H](CCC(=O)OC)[C@@H]3C [Methyl pheophorbide a, reference compound]	–	3.4	Example 3>Example 5>MePheo>Example 6	21	no significant dark response	–	–	–
Zn(II)-13^1-Hexamethylenediaminyl-bexarotenylchlorin e6 dimethyl ester [Example 4]	Clustered cells, intact nuclei	105	–	108	no significant dark response	–	no toxicity	–
C=C(c1ccc(C(=O)O)cc1)c1cc2c(cc1C)C(C)(C)CCC2(C)C [Bexarotene, reference compound]	–	110	–	111	–	–	–	–
13^1-Hexamethylenediaminyl-bexarotenylchlorin e6 dimethyl ester indium (III) chloride [Example 6]	Clustered cells, intact nuclei	80	Example 3>Example 5>MePheo>Example 6	33	exhibited dark toxicity	Example 3 (most phototoxic in the dark)>Example 1>Example 6>Example 5	–	–
O=C(O)CCCC[C@@H]1SC[C@@H]2NC(=O)N[C@@H]21 [Biotine, biotin, reference compound]	–	99	–	116	–	–	–	toxicity to colon cancer cells (cell viability assay) ([4]; in the dark and in the presence of light, concentration up to 50 μM): not toxic
Zn(II)-13^1-Hexamethylenediaminyl-Biotinylchlorin e6 dimethyl ester [Example 3]	–	15.4	Example 3>Example 5>MePheo>Example 6	16	exhibited dark toxicity	Example 3 (most phototoxic in the dark)>Example 1>Example 6>Example 5	most phototoxic in the dark	–
